The numbers were not newly measured in US20110226621A1, “TARGET RECOGNITION MOLECULE AND A METHOD FOR IMMOBILIZING THE SAME” (Sharp Kabushiki Kaisha, priority 2009, published 2011), which cites them from elsewhere.

Like-named read-outs stand apart in the source and are kept apart here.

For this series the following is noted: individual amino acid.
[1] abbreviates: Table 1 repeated in Example 1-1.

As to `C[C@H](N)C(=O)O` [alanine], the isoelectric point was 6.00 (Table 1 in summary) and 6.00 under setting [1].
Take `N=C(N)NCCC[C@H](N)C(=O)O` [arginine]: the isoelectric point is, setting by setting: (Table 1 in summary) 10.76; under setting [1], 10.76.
Regarding `NC(=O)C[C@H](N)C(=O)O` [asparagine], the isoelectric point was 5.41 (Table 1 in summary) and 5.41 under setting [1].
For the compound `N[C@@H](CC(=O)O)C(=O)O` [aspartic acid], the isoelectric point runs as follows: (Table 1 in summary) 2.77; under setting [1], 2.77.
As to `N[C@@H](CS)C(=O)O` [cysteine], the isoelectric point is listed as 5.05 (Table 1 in summary) and 5.05 under setting [1].
With `N[C@@H](CCC(=O)O)C(=O)O` [glutamic acid], the isoelectric point is, setting by setting: (Table 1 in summary) 3.22; under setting [1], 3.22.
In the case of `NCC(=O)O` [glycine], the isoelectric point is 5.97 (Table 1 in summary) and 5.97 under setting [1].
Consider `N[C@@H](Cc1c[nH]cn1)C(=O)O` [histidine], for which the isoelectric point runs as follows: (Table 1 in summary) 7.59; under setting [1], 7.59.
`CC[C@H](C)[C@H](N)C(=O)O` [isoleucine]: the isoelectric point (Table 1 in summary) is listed as 6.05 and the isoelectric point under setting [1] is given as 6.05.
With `NCCCC[C@H](N)C(=O)O` [lysine], the isoelectric point (Table 1 in summary) is on record as 9.75 and the isoelectric point under setting [1] is 9.75.
With `CSCC[C@H](N)C(=O)O` [methionine], the isoelectric point runs as follows: (Table 1 in summary) 5.74; under setting [1], 5.74.
For `N[C@@H](Cc1ccccc1)C(=O)O` [phenylalanine], the isoelectric point by setting is: (Table 1 in summary) 5.48; under setting [1], 5.48.
As for `O=C(O)[C@@H]1CCCN1` [proline], the isoelectric point reads like this: (Table 1 in summary) 6.30; under setting [1], 6.30.
As for `N[C@@H](CO)C(=O)O` [serine], the isoelectric point is reported as 5.68 (Table 1 in summary) and 5.68 under setting [1].
Turning to `C[C@@H](O)[C@H](N)C(=O)O` [threonine], the isoelectric point is listed as 6.16 (Table 1 in summary) and 6.16 under setting [1].
On to `N[C@@H](Cc1c[nH]c2ccccc12)C(=O)O` [tryptophan], for which the isoelectric point is, setting by setting: (Table 1 in summary) 5.89; under setting [1], 5.89.
For the compound `N[C@@H](Cc1ccc(O)cc1)C(=O)O` [tyrosine], the isoelectric point (Table 1 in summary) is reported as 5.66 and the isoelectric point under setting [1] is reported as 5.66.
As to `CC(C)[C@H](N)C(=O)O` [valine], the isoelectric point was 5.96 (Table 1 in summary) and 5.96 under setting [1].
